The experiment addresses T1, hROMK (hKir1.1) (Homo sapiens, UniProt P48048).
T1 construct: expressed in transfected cells
T1 sequence (P48048 1-391): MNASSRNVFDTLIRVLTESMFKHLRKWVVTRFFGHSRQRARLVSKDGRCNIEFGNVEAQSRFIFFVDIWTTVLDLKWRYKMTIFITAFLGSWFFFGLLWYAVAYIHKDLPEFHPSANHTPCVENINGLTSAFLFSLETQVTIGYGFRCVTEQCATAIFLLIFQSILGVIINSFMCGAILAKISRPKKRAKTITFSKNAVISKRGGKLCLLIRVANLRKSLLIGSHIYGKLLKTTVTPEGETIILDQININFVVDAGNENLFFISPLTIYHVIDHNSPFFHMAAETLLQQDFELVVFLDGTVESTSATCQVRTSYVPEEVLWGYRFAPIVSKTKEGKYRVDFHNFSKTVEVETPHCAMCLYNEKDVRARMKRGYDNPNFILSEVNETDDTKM
Nature of the experiment: Thallium Flux Assay (ROMK channel functional thallium flux, FLIPR-Tetra). Type of experiment: cell-based. As to conditions: HEK293 cells stably expressing hROMK (hKir1.1); 30 min incubation with compound; HCl salt run where final product was an HCl salt. Here is the method: The following Thallium Flux Assay was performed on each of the final product compounds in the Examples. When the final product of an Example was an HCl salt, the salt was run in the Assay.
Cell Culture Conditions—HEK293 cells stably expressing hROMK (hKir1.1) were grown at 37° C. in a 10% CO2 humidified incubator in complete growth media: Dulbecco's Modified Eagle Medium supplemented with non-essential amino acids, Penicillin/Streptomycin/Glutamine, G418 and FBS. At >80% confluency, aspirate the media from the flask and rinse with 10 mL Calcium/Magnesium-free PBS. Add 5 mL of 1× trypsin (prepared in Ca/Mg Free PBS) to T-225 flask and return flask to 37° C./CO2 incubator for 2-3 minutes. To dislodge the cell, gently bang the side of the flask with your hand. Triturate the cells completely and then transfer the cells to 25 mL complete media. Centrifuge at 1,500 rpm for 6 min followed by resuspension in complete growth media and determine cell concentration. For typical re-seeding, 4E6 cells/T-225 flask will attain >80% confluency in 4 days. Under ideal growth conditions and appropriate tissue culture practices, this cell line is stable for 40-45 passages.
FluxOR Kit Components (Invitrogen F10017)
• FluxOR™ Reagent (Component A) • FluxOR™ Assay Buffer (Component B)—10× Concentrate • PowerLoad™ Concentrate (Component C)—100× Concentrate • Probenecid (Component D)—Lyophilized sample is kept at −20° C. Water soluble, 100× after solubilization in 1 mL water. Store at 4° C. • FluxOR™ Chloride-free Buffer (Component E)—5× Concentrate • Potassium sulfate (K2SO4) Concentrate (Component F)—125 mM in water. Store at 4° C. • Thallium sulfate (T12SO4) Concentrate (Component G)—50 mM in water. Store at 4° C. • DMSO (dimethyl sulfoxide, Component H)—1 mL (100%) Reagent Preparation: FluxOR Working Solutions • 1000× FluxOR™ Reagent: Reconstitute a vial of component A in 100 μl DMSO; Mix well; Store 10 μl aliquots at −20° C. • 1× FluxOR™ Assay Buffer: Dilute Component B 10-fold with water; Adjust pH to 7.4 with Hepes/NaOH; Filter and store at 4° C. • Probenecid/Assay Buffer: 100 mL of 1× FluxOR™ Assay Buffer; 1 mL of reconstituted component D; Store at 4° C. • Loading Buffer (per microplate): 10 μl 1000× FluxOR™ Reagent; 100 μl component C; 10 mL Probenecid/Assay Buffer • Compound Buffer (per microplate): 20 mL Probenecid/Assay Buffer; 0.3 mM ouabain (10 mM ouabain in water can be stored in amber bottle/aluminum foil at room temperature); Test compound • 1× FluxOR™ Chloride-Free Buffer: Prepare 1× working solution in water. Can be stored at room temperature • Stimulant Buffer (prepared at 5× final concentration in 1× FluxOR™ Chloride-Free Buffer): 7.5 mM Thallium sulfate and 0.75 mM Potassium sulfate (to give a final assay concentration of 3 mM Thallium/0.3 mM Potassium). Store at 4° C. when not in use.
Assay protocol—The ROMK channel functional thallium flux assay is performed in 384 wells, using the FLIPR-Tetra instrument. HEK-hKir1.1 cells are seeded in Poly-D-Lysine microplates and kept in a 37° C.-10% CO2 incubator overnight. On the day of the experiment, the growth media is replaced with the FluxOR™ reagent loading buffer and incubated, protected from light, at ambient temperature (23-25° C.) for 90 min. The loading buffer is replaced with assay buffer±test compound followed by 30 min incubation at ambient temperature, where the Thallium/Potassium stimulant is added to the microplate.
• 1. Seed HEK-hKir1.1 cells (50 μl at 20,000 cells/well) in 384-well PDL coated Microplates • 2. Allow cells to adhere overnight in humidified 37° C./10% CO2 incubator • 3. Completely remove cell growth media from microplate and replace with 25 μl loading buffer • 4. Incubate Microplate at room temperature, protected from light, for 90 min • 5. Remove loading buffer and replace with 25 μl 1× Assay Buffer±test compound. • 6. Incubate microplate at room temperature, protected from light, for 30 min • 7. […]

The term IC50 denotes the midpoint of a concentration-inhibition curve. Regarding `Cc1c(CCN2CCC(C(=O)Nc3ccc(C#N)cc3)CC2)ccc2c1COC2=O` [Example 3, N-(4-cyanophenyl)-1-(2-(4-methyl-1-oxo-1,3-dihydroisobenzofuran-5-yl)ethyl)piperidine-4-carboxamide], the IC50 came to 140 nM.

In the case of `Cc1c(CCN2CCC(C(=O)Nc3cc(C#N)ccc3F)CC2)ccc2c1COC2=O` [Example 9, N-(5-cyano-2-fluorophenyl)-1-(2-(4-methyl-1-oxo-1,3-dihydroisobenzofuran-5-yl)ethyl)piperidine-4-carboxamide], the half-inhibitory concentration (IC50) came to 250 nM.

On to `Cc1cc(NC(=O)C2C3CN(C[C@H](O)c4ccc5c(c4C)COC5=O)CC32)sn1` (stereo partly drawn) [Example 55, 3-((R)-2-hydroxy-2-(4-methyl-1-oxo-1,3-dihydroisobenzofuran-5-yl)ethyl)-N-(3-methylisothiazol-5-yl)-3-azabicyclo[3.1.0]hexane-6-carboxamide], for which the IC50 stood at 60 nM.

As for `Cc1nsc(NC(=O)C2CCN(C[C@H](O)c3ccc4c(c3C)COC4=O)CC2)n1` [Example 31, (R)-1-(2-hydroxy-2-(4-methyl-1-oxo-1,3-dihydroisobenzofuran-5-yl)ethyl)-N-(3-methyl-1,2,4-thiadiazol-5-yl)piperidine-4-carboxamide], the concentration for half-maximal inhibition (IC50) turned out to be 160 nM. Then `N#Cc1cc(NC(=O)C2CCN(CCc3ccc4c(c3)COC4=O)CC2)n(-c2ccc(F)cc2)c1` [Example 21, N-(4-cyano-1-(4-fluorophenyl)-1H-pyrrol-2-yl)-1-(2-(1-oxo-1,3-dihydroisobenzofuran-5-yl)ethyl)piperidine-4-carboxamide], with 410 nM; and `Cc1c([C@@H](O)CN2CC3C(C2)C3C(=O)Nc2cnsc2)ccc2c1COC2=O` (stereo partly drawn) [Example 58, 3-((R)-2-hydroxy-2-(4-methyl-1-oxo-1,3-dihydroisobenzofuran-5-yl)ethyl)-N-(isothiazol-4-yl)-3-azabicyclo[3.1.0]hexane-6-carboxamide], with 280 nM.

For `Cc1c([C@@H](O)CN2CCC(F)(C(=O)Nc3cnns3)CC2)ccc2c1COC2=O` [Example 53, (R)-4-fluoro-1-(2-hydroxy-2-(4-methyl-1-oxo-1,3-dihydroisobenzofuran-5-yl)ethyl)-N-(1,2,3-thiadiazol-5-yl)piperidine-4-carboxamide], the concentration for half-maximal inhibition (IC50) came out at 260 nM. Turning to `Cc1c([C@@H](O)CN2CCC(C(=O)Nc3nc(C4CC4)ns3)CC2)ccc2c1COC2=O` [Example 32, (R)-N-(3-cyclopropyl-1,2,4-thiadiazol-5-yl)-1-(2-hydroxy-2-(4-methyl-1-oxo-1,3-dihydroisobenzofuran-5-yl)ethyl)piperidine-4-carboxamide], the IC50 was determined as 300 nM. Take `Cc1c([C@@H](O)CN2CCC(C(=O)Nc3ccc(-n4cccn4)cc3)CC2)ccc2c1COC2=O` [Example 23, (R)-N-(4-(1H-pyrazol-1-yl)phenyl)-1-(2-hydroxy-2-(4-methyl-1-oxo-1,3-dihydroisobenzofuran-5-yl)ethyl)piperidine-4-carboxamide]: the 50% inhibitory concentration (IC50) was 80 nM. `CCOc1cc(NC(=O)C2CCN(CCc3ccc4c(c3)COC4=O)CC2)ccc1C#N` [Example 12, N-(4-cyano-3-ethoxyphenyl)-1-[2-(1-oxo-1,3-dihydro-2-benzofuran-5-yl)ethyl]piperidine-4-carboxamide]: the IC50 is 30 nM. With `CCN(C(=O)C1CCN(C[C@H](O)c2ccc3c(c2C)COC3=O)CC1)c1ccns1` [Example 43, (R)-N-ethyl-1-(2-hydroxy-2-(4-methyl-1-oxo-1,3-dihydroisobenzofuran-5-yl)ethyl)-N-(isothiazol-5-yl)piperidine-4-carboxamide], the IC50 was determined as 50 nM. On to `Cc1c([C@@H](O)CN2CCC(F)(C(=O)Nc3ccc(C#N)cn3)CC2)ccc2c1COC2=O` [Example 52, (R)-N-(5-cyanopyridin-2-yl)-4-fluoro-1-(2-hydroxy-2-(4-methyl-1-oxo-1,3-dihydroisobenzofuran-5-yl)ethyl)piperidine-4-carboxamide], for which the IC50 stood at 260 nM.

For `N#Cc1cc(F)c(NC(=O)C2CCN(CCc3ccc4c(c3)COC4=O)CC2)cc1F` [Example 14, N-(4-cyano-2,5-difluorophenyl)-1-(2-(1-oxo-1,3-dihydroisobenzofuran-5-yl)ethyl)piperidine-4-carboxamide], the half-maximal inhibitory concentration (IC50) turned out to be 140 nM. The same measure for `N#Cc1ccc(NC(=O)C2CCN(CCc3ccc4c(c3)COC4=O)CC2)c(OC(F)(F)F)c1` [Example 15, N-(4-cyano-2-(trifluoromethoxy)phenyl)-1-(2-(1-oxo-1,3-dihydroisobenzofuran-5-yl)ethyl)piperidine-4-carboxamide]: 180 nM. Turning to `Cc1c([C@@H](O)CN2CCC(F)(C(=O)Nc3cnsc3)CC2)ccc2c1COC2=O` [Example 50, (R)-4-fluoro-1-(2-hydroxy-2-(4-methyl-1-oxo-1,3-dihydroisobenzofuran-5-yl)ethyl)-N-(isothiazol-4-yl)piperidine-4-carboxamide], the IC50 was 370 nM. As for `COc1nsc(NC(=O)C2C3CN(C[C@H](O)c4ccc5c(c4C)COC5=O)CC32)n1` (stereo partly drawn) [Example 57, 3-((R)-2-hydroxy-2-(4-methyl-1-oxo-1,3-dihydroisobenzofuran-5-yl)ethyl)-N-(3-methoxy-1,2,4-thiadiazol-5-yl)-3-azabicyclo[3.1.0]hexane-6=carboxamide], the IC50 is 310 nM. With `COc1cc(NC(=O)C2CCN(CCc3ccc4c(c3)COC4=O)CC2)ccc1C#N` [Example 13, N-(4-cyano-3-methoxyphenyl)-1-(2-(1-oxo-1,3-dihydroisobenzofuran-5-yl)ethyl)piperidine-4-carboxamide], the IC50 was 30 nM. `Cc1ccc(C#N)cc1NC(=O)C1CCN(CCc2ccc3c(c2C)COC3=O)CC1` [Example 2, N-(5-cyano-2-methylphenyl)-1-(2-(4-methyl-1-oxo-1,3-dihydroisobenzofuran-5-yl)ethyl)piperidine-4-carboxamide]: the IC50 turned out to be 460 nM.

For `Cc1nsc(NC(=O)C2(O)CCN(C[C@H](O)c3ccc4c(c3C)COC4=O)CC2)n1` [Example 40, (R)-4-hydroxy-1-(2-hydroxy-2-(4-methyl-1-oxo-1,3-dihydroisobenzofuran-5-yl)ethyl)-N-(3-methyl-1,2,4-thiadiazol-5-yl)piperidine-4-carboxamide], the half-maximal inhibitory concentration (IC50) worked out at 420 nM. For `Cc1c([C@@H](O)CN2CC3C(C2)C3C(=O)Nc2ccc(-n3cnnn3)cn2)ccc2c1COC2=O` (stereo partly drawn) [Example 60, N-(5-(1H-tetrazol-1-yl)pyridin-2-yl)-3-((R)-2-hydroxy-2-(4-methyl-1-oxo-1,3-dihydroisobenzofuran-5-yl)ethyl)-3-azabicyclo[3.1.0]hexane-6-carboxamide], the IC50 is 470 nM.

For the origin of these results see patent US9951052B2, “Inhibitors of the renal outer medullary potassium channel” (Merck Sharp & Dohme Corp., priority 2013, dated 2018).
